Data: patent US20250296959A1, “B7-H3 TARGETING PEPTIDES AND CONSTRUCTS THEREOF” (Mariana Oncology Inc., priority 2024, published 2025)
Where two headings read alike, the source gives them in different places. Starred links: 1 amine or outer side, 2 acyl side, 3 side chain; linkers in the order of their positions; H or OH if unused. Positions of bridges follow the written chain, without caps; N, C: chain ends. Non-standard residues stand in square brackets, D forms with d. Residues, ends and D or L forms follow the SMILES beside them. Groups on a side chain read outwards from the residue. *: point of attachment. Ala(piperidin-4-yl) = O=C([C@H](CC1CCN([*:3])CC1)N[*:1])[*:2]; DOTA = O=C(O)CN1CCN(CC(=O)O)CCN(CC(=O)*)CCN(CC(=O)O)CC1; Phe(4-COOH) = N[C@@H](Cc1ccc(C(=O)O)cc1)C(=O)O; Trp(5-F) = N[C@@H](Cc1c[nH]c2ccc(F)cc12)C(=O)O; X1 = C[C@@H](c1ccccc1)[C@H](N[*:1])C(=O)[*:2]; γGlu = O=C(O)[C@H](CCC(=O)[*:2])N[*:1]; 1Nal = N[C@@H](Cc1cccc2ccccc12)C(=O)O; Ala(4-THP) = N[C@@H](CC1CCOCC1)C(=O)O; Val(3-OH) = CC(C)(O)[C@H](N)C(=O)O; hCha = N[C@@H](CCC1CCCCC1)C(=O)O; 4Pal = N[C@@H](Cc1ccncc1)C(=O)O; PEG4 = NCCOCCOCCOCCOCCC(=O)O; Tle = CC(C)(C)[C@H](N)C(=O)O; hLeu = CC(C)CC[C@H](N)C(=O)O

Key:
Calu-6 cell line [1] = assay: Cell associated (bound) fraction of [177Lu]Lu-labeled peptide in Calu-6 cells; format: cell-based, Human; conditions: 1 hour, 37° C.
How it was run: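 Detached B7-H3-expressing human lung cancer cells at 5 million/mL were exposed for 1 hour at 37 °C to 0.8 μCi of the 177Lu-labelled peptide, which was formulated in 1% PBSA after labelling at 80 °C, pH ~5. Supernatant and two cold washes counted as unbound, and resuspended cells gamma-counted as the cell-associated fraction.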

Calu-6 cell line [2] = assay: Net internalization of [177Lu]Lu-labeled peptide in Calu-6 cells; format: cell-based, Human; conditions: 1 hour, 37° C., glycine pH 2.5 acid wash
How it was run: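 Calu-6 cells, human non-engineered lung cancer expressing B7-H3, resuspended in 1% PBSA at 5 million cells/mL and incubated with the 177Lu-labeled conjugate (labeled at 80 °C, pH ~5, RP-HPLC checked). Gamma counting of the bound fraction, then of the pellet after two glycine pH 2.5 acid strips and NaOH lysis, gives internalized activity.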

human 4lg B7-H3 = target: T1, human 4lg B7-H3 (Homo sapiens, UniProt Q5ZPR3); assay: Affinity determination by surface plasmon resonance (SPR) to 4Ig B7-H3; conditions: 4Ig B7-H3
T1 sequence (Q5ZPR3 29-534): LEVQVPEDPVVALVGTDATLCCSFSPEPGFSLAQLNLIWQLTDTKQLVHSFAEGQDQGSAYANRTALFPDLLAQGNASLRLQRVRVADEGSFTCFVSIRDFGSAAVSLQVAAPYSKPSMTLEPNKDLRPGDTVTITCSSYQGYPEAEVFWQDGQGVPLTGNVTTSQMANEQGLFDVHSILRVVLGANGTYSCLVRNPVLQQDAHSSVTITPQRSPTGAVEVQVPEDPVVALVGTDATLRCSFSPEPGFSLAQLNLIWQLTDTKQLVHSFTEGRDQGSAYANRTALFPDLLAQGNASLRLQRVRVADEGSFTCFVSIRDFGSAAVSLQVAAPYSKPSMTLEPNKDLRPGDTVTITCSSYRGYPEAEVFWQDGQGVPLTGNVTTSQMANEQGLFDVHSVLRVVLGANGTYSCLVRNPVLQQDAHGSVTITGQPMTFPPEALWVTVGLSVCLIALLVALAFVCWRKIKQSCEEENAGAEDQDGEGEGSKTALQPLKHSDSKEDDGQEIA

[3] = read-out: SPR KD—37° C., 37° C. flow cell temperature
[4] = read-out: SPR KD—25° C., 25° C. flow cell temperature

Compound	% cell associated fraction (Calu-6 cell line [1])	% net internalization (Calu-6 cell line [2])	Kd (human 4lg B7-H3; [3])	Kd (human 4lg B7-H3; [4])	Kd (human 4lg B7-H3; SPR KD—25° C., 25° C. flow cell temperature)	Kd (human 4lg B7-H3; SPR KD—37° C., 37° C. flow cell temperature)
CC(=O)N[C@@H](CCC(C)C)C(=O)N[C@@H](Cc1ccc(O)cc1)C(=O)N[C@H]1CSSC[C@@H](C(=O)N[C@@H](Cc2c[nH]c3ccc(F)cc23)C(=O)N[C@H](C(=O)N[C@H](C(=O)N[C@H](CCCCNC(=O)[C@@H](CCC(=O)O)NC(=O)CN2CCN(CC(=O)O)CCN(CC(=O)O)CCN(CC(=O)O)CC2)C(=O)O)C(C)(C)O)[C@@H](C)c2ccccc2)NC(=O)[C@H](Cc2ccc(O)cc2)NC(=O)[C@H](C(C)C)NC(=O)[C@H](CC(=O)O)NC(=O)[C@H](CC2CCOCC2)NC(=O)[C@H](CC2CCNCC2)NC(=O)CNC(=O)[C@H](C(C)(C)C)NC1=O [compound 501, Ac-hLeu-Y-C-Tbg-G-PipAla-ThpA-D-V-Y-C-5FW-[(2S, 3S)beta-Me-Phe]-hydroxyVal-dLys(dGlu-DOTA)-COOH] (Ac-[hLeu]YC[Tle]G[Ala(piperidin-4-yl)][Ala(4-THP)]DVYC[Trp(5-F)][X1][Val(3-OH)][dK]([dE-DOTA])-OH; disulfide 3-11)	C (%>50)	B (25<%≤50)	< 1 nM			
CC(=O)N[C@@H](CCC(C)C)C(=O)N[C@@H](Cc1ccc(O)cc1)C(=O)N[C@H]1CSSC[C@@H](C(=O)N[C@@H](Cc2c[nH]c3ccc(F)cc23)C(=O)N[C@@H](Cc2ccccc2)C(=O)N2CCC[C@H]2C(=O)N[C@H](CCCCNC(=O)CN2CCN(CC(=O)O)CCN(CC(=O)O)CCN(CC(=O)O)CC2)C(N)=O)NC(=O)[C@H](Cc2ccc(O)cc2)NC(=O)[C@H](C(C)C)NC(=O)[C@H](CC(=O)O)NC(=O)[C@H](Cc2ccc(C(=O)O)cc2)NC(=O)[C@H](CC2CCNCC2)NC(=O)CNC(=O)[C@H](C(C)C)NC1=O [compound 286, Ac-hLeu-Y-C-V-G-PipAla-4COOHPhe-D-V-Y-C-5FW-F-Pro-dLys(DOTA)-CONH2] (Ac-[hLeu]YCVG[Ala(piperidin-4-yl)][Phe(4-COOH)]DVYC[Trp(5-F)]FP[dK](DOTA)-NH2; disulfide 3-11)	C (%>50)	A (%≤25)	1 to 10 nM	< 1 nM		
CC(=O)N[C@@H](CCC(C)C)C(=O)N[C@@H](Cc1ccc(O)cc1)C(=O)N[C@H]1CSSC[C@@H](C(=O)N[C@@H](Cc2c[nH]c3ccc(F)cc23)C(=O)N[C@@H](Cc2ccccc2)C(=O)N[C@H](C(=O)N[C@H](CCCCNC(=O)CN2CCN(CC(=O)O)CCN(CC(=O)O)CCN(CC(=O)O)CC2)C(=O)O)C(C)(C)O)NC(=O)[C@H](Cc2ccc(O)cc2)NC(=O)[C@H](C(C)C)NC(=O)[C@H](CC(=O)O)NC(=O)[C@H](CC2CCOCC2)NC(=O)[C@H](CC2CCNCC2)NC(=O)CNC(=O)[C@H](C(C)(C)C)NC1=O [compound 340, Ac-hLeu-Y-C-Tbg-G-PipAla-ThpA-D-V-Y-C-5FW-F-hydroxyVal-dLys(DOTA)-COOH] (Ac-[hLeu]YC[Tle]G[Ala(piperidin-4-yl)][Ala(4-THP)]DVYC[Trp(5-F)]F[Val(3-OH)][dK](DOTA)-OH; disulfide 3-11)	C (%>50)	A (%≤25)	< 1 nM			
CC(=O)N[C@@H](CCC(C)C)C(=O)N[C@@H](Cc1ccc(O)cc1)C(=O)N[C@H]1CSSC[C@@H](C(=O)N[C@@H](Cc2cccc3ccccc23)C(=O)N[C@@H](Cc2ccccc2)C(=O)N2CCC[C@H]2C(N)=O)NC(=O)[C@H](Cc2ccc(O)cc2)NC(=O)[C@H](C(C)C)NC(=O)[C@H](CC(=O)O)NC(=O)[C@H](Cc2ccncc2)NC(=O)[C@H](CCCCNC(=O)CC[C@H](NC(=O)CN2CCN(CC(=O)O)CCN(CC(=O)O)CCN(CC(=O)O)CC2)C(=O)O)NC(=O)CNC(=O)[C@H](C(C)(C)C)NC1=O [compound 252, Ac-hLeu-Y-C-Tbg-G-Lys(gE-DOTA)-4PyA-D-V-Y-C-1Nal-F-Pro-CONH2] (Ac-[hLeu]YC[Tle]GK([γGlu-DOTA])[4Pal]DVYC[1Nal]FP-NH2; disulfide 3-11)	B (25<%≤50)	A (%≤25)			1 to 10 nM	
CC(=O)N[C@@H](CCC(C)C)C(=O)N[C@@H](Cc1ccc(O)cc1)C(=O)N[C@H]1CSSC[C@@H](C(=O)N[C@@H](Cc2c[nH]c3ccccc23)C(=O)N[C@@H](Cc2ccccc2)C(=O)N[C@H](C(=O)N[C@H](CCCCNC(=O)CN2CCN(CC(=O)O)CCN(CC(=O)O)CCN(CC(=O)O)CC2)C(N)=O)[C@@H](C)O)NC(=O)[C@H](Cc2ccc(O)cc2)NC(=O)[C@H](C(C)C)NC(=O)[C@H](CC(=O)O)NC(=O)[C@H](Cc2ccc(O)cc2)NC(=O)[C@H](CCCCN)NC(=O)CNC(=O)[C@H](C(C)(C)C)NC1=O [compound 72, Ac-hLeu-Y-C-Tbg-G-K-Y-D-V-Y-C-W-F-Thr-dLys(DOTA)-CONH2] (Ac-[hLeu]YC[Tle]GKYDVYCWFT[dK](DOTA)-NH2; disulfide 3-11)	C (%>50)	A (%≤25)		< 1 nM		
CC(=O)N[C@@H](CCC1CCCCC1)C(=O)N[C@@H](Cc1ccc(O)cc1)C(=O)N[C@H]1CSSC[C@@H](C(=O)N[C@@H](Cc2c[nH]c3ccc(F)cc23)C(=O)N[C@@H](Cc2ccccc2)C(=O)N[C@H](C(=O)N[C@H](CCCCNC(=O)CN2CCN(CC(=O)O)CCN(CC(=O)O)CCN(CC(=O)O)CC2)C(=O)O)C(C)(C)O)NC(=O)[C@H](Cc2ccc(O)cc2)NC(=O)[C@H](C(C)C)NC(=O)[C@H](CC(=O)O)NC(=O)[C@H](CC2CCOCC2)NC(=O)[C@H](CCCCN)NC(=O)CNC(=O)[C@H](C(C)(C)C)NC1=O [compound 368, Ac-hCha-Y-C-Tbg-G-K-ThpA-D-V-Y-C-5FW-F-hydroxyVal-dLys(DOTA)-COOH] (Ac-[hCha]YC[Tle]GK[Ala(4-THP)]DVYC[Trp(5-F)]F[Val(3-OH)][dK](DOTA)-OH; disulfide 3-11)	B (25<%≤50)	A (%≤25)				< 1 nM
CC(=O)N[C@@H](CCC(C)C)C(=O)N[C@@H](Cc1ccc(O)cc1)C(=O)N[C@H]1CSSC[C@@H](C(=O)N[C@@H](Cc2c[nH]c3ccc(F)cc23)C(=O)N[C@@H](Cc2ccccc2)C(=O)N2CCC[C@H]2C(=O)N[C@H](CCCCNC(=O)CN2CCN(CC(=O)O)CCN(CC(=O)O)CCN(CC(=O)O)CC2)C(=O)O)NC(=O)[C@H](Cc2ccc(O)cc2)NC(=O)[C@H](C(C)C)NC(=O)[C@H](CC(=O)O)NC(=O)[C@H](CC2CCOCC2)NC(=O)[C@H](CCCCN)NC(=O)CNC(=O)[C@H](C(C)C)NC1=O [compound 288, Ac-hLeu-Y-C-V-G-K-ThpA-D-V-Y-C-5FW-F-Pro-dLys(DOTA)-COOH] (Ac-[hLeu]YCVGK[Ala(4-THP)]DVYC[Trp(5-F)]FP[dK](DOTA)-OH; disulfide 3-11)	B (25<%≤50)	A (%≤25)		< 1 nM		
CC(=O)N[C@@H](CCC(C)C)C(=O)N[C@@H](Cc1ccc(O)cc1)C(=O)N[C@H]1CSSC[C@@H](C(=O)N[C@@H](Cc2c[nH]c3ccc(F)cc23)C(=O)N[C@@H](Cc2ccccc2)C(=O)N[C@H](C(N)=O)C(C)(C)O)NC(=O)[C@H](Cc2ccc(O)cc2)NC(=O)[C@H](C(C)C)NC(=O)[C@H](CC(=O)O)NC(=O)[C@H](CC2CCN(C(=O)CCOCCOCCOCCOCCNC(=O)CN3CCN(CC(=O)O)CCN(CC(=O)O)CCN(CC(=O)O)CC3)CC2)NC(=O)[C@H](CCCCN)NC(=O)CNC(=O)[C@H](C(C)(C)C)NC1=O [compound 383, Ac-hLeu-Y-C-Tbg-G-K-Pip(PEG4-DOTA)Ala-D-V-Y-C-5FW-F-hydroxyVal-CONH2] (Ac-[hLeu]YC[Tle]GK[Ala(piperidin-4-yl)]([PEG4-DOTA])DVYC[Trp(5-F)]F[Val(3-OH)]-NH2; disulfide 3-11)	B (25<%≤50)	B (25<%≤50)	< 1 nM			
